Laboratory results reported in publication PMC9321043, “Synthesis, Structure–Activity Relationships, and Parasitological Profiling of Brussonol Derivatives as New Plasmodium falciparum Inhibitors” (Pharmaceuticals, 2022).
Several values for one entry are separate records, joined by “and”; a condition that tells them apart may be missing. Equal values may be shown once. Read-outs that look alike come from different tables or passages of the source.

How the values were obtained:
[1] = system: P. falciparum (3D7 strain); assay: In vitro antiplasmodial activity, P. falciparum blood-stage parasites, SYBR Green I; assay type: cell-based, Plasmodium falciparum
Procedure: The P. falciparum strains were cultivated in human blood cells (hRBC) O^+, while P. knowlesi was cultivated in rhesus red blood cells (rRBC) as described. P. falciparum complete RPMI (consisting of RPMI-1640, supplemented with 0.2% NaHCO3, 25 mM HEPES (pH 7.4), 11 mM D-glucose, 10 mg/L hypoxanthine, 25 mg/L gentamicin, and 0.5% (m/v) AlbuMAX II). The parasitemias of these cultures were maintained below 10% with 2.5% hematocrit. P. knowlesi complete RPMI (consisting of RPMI-1640 supplemented with 25 mM HEPES, […] hypoxanthine, 0.26% NaHCO3, 10 mg/L gentamicin, and 1% Albumax II). This culture was maintained with RBCs up to 5% hematocrit. The culture medium was changed daily, and all cultures were maintained under a 90% N2/5% CO2/5% O2 gas mixture at 37 °C. All compounds were purchased from Sigma-Aldrich (Cotia, Brazil).
The antiplasmodial activity of brussonol and derivatives was evaluated against P. falciparum blood parasites 3D7(chloroquine-sensitive). The parasites were synchronized through sterile 5% (m/v) D-sorbitol treatment over 10 min at 37 °C for the enrichment of ring stages. Centrifugation 600× g over 5 min was used to pellet the cultures. The parasitemia was determined by microscope analysis of thin blood smears stained with Giemsa 10% (v/v) after fixation with methanol. The initial parasitemia was calculated for 1000 red blood cells (RBCs), and cultures were diluted to 0.5% parasitemia and 2% hematocrit by the addition of the appropriate volumes of blood and medium. A total of 180 µL aliquots of parasites were distributed into 96-well plates followed by the addition of 20 µL of previously prepared aliquots of ten-fold concentrated compounds, the range of concentrations tested was 10–1.53 µM. Negative and positive control wells, which correspond to non-parasitized erythrocytes and parasite cultures in the absence of compounds, were set in parallel. The DMSO concentration was maintained below 0.05% (v/v) for all compounds except for brussonol, which was 0.5%. The plates were incubated for 72 h at 37 °C in a humidified incubator with a gas mixture of 90% N2, 5% O2, and 5% CO2. Each test was performed in duplicates, and the results were compared with the control cultures. Once completed incubation, the culture medium was removed, and the cells were resuspended in 100 µL PBS (116 mM NaCl, 10 mM NaH2PO4, 3 mM KH2PO4) and lysed with 100 µL lysis buffer (20 mM Tris base, 5 mM EDTA, 0.0008% (v/v) Triton X-100, 0.008% (m/v) saponin, pH 8.0) containing 0.002% (v/v) SYBR Green I. Plates were incubated for 30 min at room temperature, and a SpectraMAX Gemini EM plate reader (Molecular Devices Corp., Sunnyvale, CA) was used to determine the fluorescence corresponding to parasitic density (excitation at 485 nm, emission at 535 nm). The half-maximal inhibitory concentration (IC50^Pf) was determined by non-linear regression analysis of the resulting concentration–response curve using the software GraphPad Prism version 8.0.1 for Windows, GraphPad Software, San Diego, California USA, www.graphpad.com, accessed on 3 March 2022”.

[2] = system: P. falciparum Dd2 strain; assay: Resistance assessment, Dd2 strain; assay type: cell-based; conditions: Plasmodium falciparum
[3] = system: P. falciparum TM90C6B strain; assay: Resistance assessment, TM90C6B strain; assay type: cell-based; conditions: Plasmodium falciparum
[4] = system: P. falciparum 3D7^r_MMV848 strain; assay: Resistance assessment, 3D7r-MMV848 strain; assay type: cell-based; conditions: Plasmodium falciparum
[5] = system: P. falciparum; assay: In vitro combination with artesunate, fixed-ratio isobologram; assay type: cell-based, Plasmodium falciparum
Text: A drug combination investigation is important to assess whether the combination of the tested compound with a known antimalarial drug is advantageous or not. In this assay, a fixed molar ratio was used to assess the combination profile of brussonol and artesunate. The range of concentrations tested was based on the assessed IC50 values of both the compounds previously determined. In this method, we first determined the additive isobole, which defined the range of IC50 values pairs to be attributed to an additive (neutral) character of combination. Next, the combination pairs were plotted. Data points distributed below or above the additive isobole indicate a synergic or antagonistic profile, respectively.
This assay was adapted from the work done by Fivelman and collaborators (2004). Consideration of additivity ranges was included in the analysis, as described by Grabovsky and Tallarida (2004). Brussonol and artesunate were diluted and combined in a 96-well plate in […] fixed-ratio combinations (1:0, 6:1, 5:2, 4:3, 3:4, 2:5, 1:6, 0:1). Starting concentrations were 6× IC50 for both compounds. […] The absolute IC50s of brussonol and artesunate (proportions 1:0 and 0:1), the partial IC50s (IC50^brussonol and IC50^artesunate) for each combination (6:1, 5:2, 4:3, 3:4, 2:5, 1:6), and the fractional inhibitory concentrations for each combination were determined.

CC(C)c1cc2c(c(O)c1O)C[C@@]13CCCC(C)(C)[C@@H]1C[C@@H]2O3 [Compound 1, brussonol]
IC50 ([1]; 3D7 strain, 72 h, SYBR Green I, read-out: IC50^Pf): 16 ± 2 µM | IC50 ([1]; Plasmodium falciparum, 3D7, 3D7 strain, Table 2 strain panel, read-out: IC50): 13 ± 2 µM | IC50 ([1]; Plasmodium falciparum, 3D7, 72 h, 3D7 strain, 72 h, SYBR Green I, read-out: IC50^Pf): ~20 µM | IC50 [2]: 7 ± 2 µM | IC50 [3]: 7 ± 2 µM | IC50 [4]: 12 ± 3 µM | sum of fractional inhibitory concentrations (FICindex) ([5]; brussonol combined with artesunate, proportion 1:1 respective to each IC50): ~ 1 and 1.1 ± 0.1 | combination profile with artesunate ([5]; isobologram, fixed-ratio combinations): additive effect
